Tested on: S. mutans S125 biofilms
Experiment: Static microtiter plate biofilm killing assay, mono-species
Assay type: cell-based, Streptococcus mutans
Conditions: for Biofilm cells killed: 24-h-old S. mutans S125 biofilm, strains 10^7 CFU/ml, chlorhexidine 10X MIC
Protocol: Static biofilms of S. mutons were developed on polystyrene microtiter plates by inoculating 300 μl of BHI medium with 10 μl (10^6 CFU/ml) of S. mutons S125 from an overnight culture. After 24 h of growth, the planktonic phase was carefully removed, and fresh bacteriocin-producing medium (BAC7, BAC8) containing chlorhexidine (10×MIC), BLIS M18® (10^7 CFU/ml), BLIS K12® (10^7 CFU/ml) or VAR6 (10^7 CFU/ml) was overlayed onto established biofilms and the plates were incubated for 24 h at 37° C. The upper phase was then removed, and the biofilms were washed with sterile phosphate-buffered saline (PBS, pH 7.2) and dislodged by gentle scraping using sterile pipette tips. Biofilm cells were serially diluted and plated on BHI-erythromycin agar plates. Colonies of S. mutons were counted after 48 h of incubation at 37° C. in air with 5% CO2. All assays were performed in triplicate from three independent cultures. For the fungal-bacterial assay, biofilms were developed in Yeast extract-Peptone-Glycerol (YPG) medium and using a mixture of S. mutons/Candida albicans at a ratio of 1:1. For the dental plaque assay, biofilms were developed in BHI broth and using BHI plaque suspension supplemented with S. mutons (approx. 10^5 CFU/ml).

## [H]/N=C(\N/C(=N/[H])NCCCCCCNC(=N)NC(=N)Nc1ccc(Cl)cc1)Nc1ccc(Cl)cc1 [chlorhexidine]
24 h treatment in BAC7
  Biofilm cells killed: 91.6%±3.29
24 h treatment in BAC8
  Biofilm cells killed: 90.1%±2.89

B1: SalE4: Multipeptide lantibiotic bacteriocin of VAR6 composed of Pep1, Pep2, Pep3 and Pep4 (SEQ ID NOs 5-8) (protein, listed as Streptococcus salivarius)
chain 1: MAKNTSRPEIDSLSFEVENQELSGKSGSGWFTAVQLTLAGRCGRWFTGSFECTTNNVKCG
chain 2: MRKNNNRKEIDTLDFEVKNQELSGKSGSGWFTAVQLTLAGRCGRWFTGSYECTTNNVKCG
chain 3: MKSKKVNTEIDTLEFEIDNQELNGTSGSGWWYTAFKMTLAGRCGLCFTCSYECTTNNVHC
chain 4: MKQDNFEIDSLDYEINSQELNGKSAAGWSTAVRLTVQGRCGWWFTHSYECTSPNVRCG
modifications: lantibiotic post-translational modifications
BAC7 and BAC8 medium, and in situ in the mouth of an individual
  Killing of S. mutans and inhibition of S. mutans biofilm growth: kill S. mutans, and inhibit the growth of S. mutans biofilms

— US20230381249A1, “PROBIOTIC STRAIN FOR COUNTERING CARIES PATHOGENS” (The Governing Council of the University of Toronto, priority 2022, published 2023)
